Read-outs that look alike come from different tables or passages of the source.
Legend:
MDA231 = experiment: In vitro cell viability bioassay, MTT, MDA231; format: cell-based, human
Protocol: (§1) To evaluate the cell growth inhibitory and apoptosis inducing effects of the fluorinated curcuminoids and their BF2 adducts, in-vitro bioassay tests were performed on […] different cancer cell lines namely: MOLT-4 (human leukemia suspension cancer cell line), PC3 and LNCap (human […] prostate cancer cell lines respectively), A549 (lung cancer), and MDA231 (breast cancer), and the results are sketched in Table 3.
(§2) The cell viability/anti-proliferative activity of the curcuminoids against PC3 (human androgen-insensitive prostate cancer cell line), LNCap (human-androgen sensitive prostate cancer cell line), A549 (lung cancer), and MDA231 (breast cancer) were determined by means of 3-(4,5-dimethyl-2-thiazolyl)-2,5-diphenyl-2H-tetrazolium bromide (MTT) assay (the tetrazolium salt was a commercial sample). (R. N. Khaybullin, et al., Molecules, 2014, 19, 18676-18689). The ability of the curcuminoids to affect proliferations of suspension cell lines (MOLT-4) was tested by the CellTiter-Glo® Luminescent Cell Viability Assay (purchased from Promega Madison, Wis., USA) to determine the number of viable cells in culture based on quantitation of the ATP present. The IC50 values were obtained from fitting data with GraphPad software to determine the growth inhibition in the presence of test compounds. (R. N. Khaybullin, et al., Molecules, 2014, 19, 18676-18689).

MOLT-4 = experiment: In vitro cell viability bioassay, CellTiter-Glo, MOLT-4; format: cell-based, human
Protocol: as §1, §2

PC3 = experiment: In vitro cell viability bioassay, MTT, PC3; format: cell-based; settings: Homo sapiens, PC-3; MTT assay; read-out: Prostate Cancer IC50 (μM) PC3
Protocol: as §1, §2

LNCap = experiment: In vitro cell viability bioassay, MTT, LNCap; format: cell-based; settings: Homo sapiens, MTT assay, read-out: Prostate Cancer IC50 (μM) LNCap
Protocol: as §1, §2

A549 = experiment: In vitro cell viability bioassay, MTT, A549; format: cell-based; settings: Homo sapiens, MTT assay, read-out: Lung Cancer IC50 (μM) A549
Protocol: as §1, §2

[1] = system: NCI-60 human tumor cell lines; experiment: NCI-60 one-dose screening (10^−5 M); format: cell-based
Text: The CUR—BF2 adducts 5, 10, and 19, the (CF3)2—CUR 20 and the (CF3)2—CUR—BF2 adduct 21 of FIG. 2 were screened at the National Cancer Institute using NCI-60 cell one-dose protocol (10^−5 M).
(§3) Samples were submitted to the National Cancer Institute (NCI of NIH) Developmental Therapeutics anticancer screening program (DTP) for human tumor cell line assay by NCI-60 screening against leukemia, lung, colon, and CNS cancers, as well as melanoma, ovarian, renal, prostate, and breast cancers. Compounds are initially tested at a single dose of 10-5 molar. Data are reported as mean graph of percent growth (GP). Growth inhibition is shown by values between 0 and 100 and lethality by values less than zero. Compounds that meet selection criteria based on one-dose assay are then tested against 60 cell panel at five concentrations.
as §3, with “NCI-60 assay: Samples” for “Samples”, “10^−5” for “10-5”
as §3, with “NCI-60 assay: samples” for “Samples”, “10^−5” for “10-5”, “(GP). Selected data output are shown in SI file.” for “(GP).”, “represented” for “shown”, “zero.” for “zero. Compounds that meet selection criteria based on one-dose assay are then tested against 60 cell panel at five concentrations.”

PBMCs = experiment: Apoptosis (annexin-V/PI flow cytometry), healthy donor PBMCs; format: cell-based, human
Protocol: (§4) Apoptotic cell death in multiple myeloma (MM) cancer cell lines (RPMI-8226, KMS-11, MM1.S) as well as peripheral blood mononuclear cells (PBMCs) from healthy donors that were exposed to various concentrations of (A) CUR-analog 1 (Indole-4 CUR—BF2) and (B) CUR-analog 2 (Indole-5 CUR) or (C) the FDA-approved Bcl-2 inhibitor (venetoclax, used for comparison) was assessed.
(§5) Cell lines and PBCMs (peripheral blood mononuclear cells from healthy donors as non-cancer CONTROL) were seeded in quadruplicate (technical replicates). CellTiter-Glo® 2.0 reagent equal to the volume of cell culture medium present in each well was added and the plate was left to incubate at room temperature for 10 minutes to stabilize the luminescent signal. Luminescent signal/intensity from the 384-well plate was read on a plate reader. Cells/cell lines used: BCWM.1 (Waldenstrom macroglobulinemia cell line, WM); RPMI-8266 (Multiple myeloma cell line, MM); RS4; 11 (Acute lymphoblastic leukemia, ALL). For Apoptosis study cells were treated with the indicated agents and concentrations (FIG. 74) for 24 h and stained with annexin-V and propidium iodide (PI), followed by flow cytometry analysis.

MM cell lines = experiment: Apoptosis (annexin-V/PI flow cytometry), median over MM cell lines; format: cell-based, human; settings: 1.25, 2.5, 5 uM and 10 uM
Protocol: as §4, with “assessed. Bar graphs show % of apoptotic cells (annexin-V+PI positive cells) normalized to basal apoptosis observed in control (DMSO-treated) cells.” for “assessed.”
In contrast, in KMS11 and MM1.S cells, notable apoptosis (54% and 15%, respectively) was seen only at a 10 uM concentration.
as §5, with “For Apoptosis study cells were treated with the indicated agents and concentrations (FIG. 74) for 24 h and stained with annexin-V and propidium iodide (PI), followed by flow cytometry analysis.” left out

MM1.S = experiment: Apoptosis (annexin-V/PI flow cytometry), MM1.S; format: cell-based, human
Protocol: as §4, §5

KMS-11 = experiment: Apoptosis (annexin-V/PI flow cytometry), KMS-11; format: cell-based, human
Protocol: as §4, §5

RPMI-8226 = experiment: Apoptosis (annexin-V/PI flow cytometry), RPMI-8226; format: cell-based, human; settings: 2.5 uM, 24 h
Protocol: as §4, §5

[2] = system: MM cell lines (MM1.S, KMS11, RPMI-8226); experiment: Cell proliferation and viability in multiple myeloma cell lines (CellTiter Glo 2.0, 72 h); format: cell-based, human; settings: read-out: median IC50 concentration in MM cell lines
Protocol: Cell proliferation and viability were determined in multiple myeloma (MM) cancer cell lines (RPMI-8226, KMS-11, MM1.S) as well as in peripheral blood mononuclear cells (PBMCs) from healthy donors that were exposed to various concentrations of (A) CUR-analog 1 (3-BF2) and (B) CUR-analog 2 (CUR 2) for 72 hours using the CellTiter Glo 2.0 assay.
as §5

[3] = system: Various cancer cell lines; experiment: Cancer cell line growth at 1×10^−5 M curcuminoid; format: cell-based; settings: all cancer cell lines
Protocol: Various cancer cell lines were seeded into 384-well culture plates at 2×10^3 cell/well and incubated at 5% CO2, 37° C. The culture media was replaced with 1×10^−5 M of curcuminoid; 1,7-bis(2,3,6-trimethoxyphenyl)hepta-1,4,6-triene-3,5-dione, 7-bis(3-benzothiophene)hepta-1,4,6-triene-3,5-dione, or D-793176. The cell line growth was measured.

[4] = Table 4, repeats Table 3, read-out: IC50 MDA231 (Breast cancer)
[5] = Homo sapiens, MDA-MB-231, Table 4, repeats Table 3, read-out: IC50 MDA231 (Breast cancer)
[6] = Homo sapiens, MOLT-4, CellTiter-Glo Luminescent Cell Viability Assay, read-out: Leukemia IC50 (μM) MOLT-4
[7] = Homo sapiens, MDA-MB-231, MTT assay, read-out: Breast Cancer IC50 (μM) MDA231
[8] = Table 5, repeats Table 3, read-out: Leukemia MOLT-4 IC50

In the case of `COc1ccc(/C=C/C(=O)C=C(O)/C=C/c2ccc(OC)c(OC)c2)cc1OC` [drawing 70], the IC50 (MDA231; [4]) is reported as 0.28 µM.

In the case of `COc1cc(/C=C/C(=O)C(F)(F)C(=O)/C=C/c2ccc(OC)c(OC)c2)ccc1O`, the IC50 (MDA231; [5]) is reported as 2.2 µM.

Work on `COc1cc(/C=C/C(=O)CC(=O)/C=C/c2ccc(O)c(OC)c2)ccc1O` [compound 1 of FIG. 2, curcumin] yielded an IC50 (MOLT-4; [6]) of 19 µM, an IC50 (PC3) of 9 µM and an IC50 (LNCap) of 9.7 µM. For the same molecule, the IC50 (A549) was 18 µM and the IC50 (MDA231; [7]) was 11.5 µM.

`COc1ccc(/C=C/C(=O)C(F)=C(O)/C=C/c2ccc(OC)c(OC)c2)cc1OC` [drawing 85] gave an IC50 (MOLT-4; [8]) of 0.076 µM.

Work on `COc1cc(/C=C/C(=O)C=C(O)/C=C/c2ccc(O)c(OC)c2)ccc1O` [drawing 82] yielded an IC50 (MOLT-4; [8]) of 19 µM.

Work on `COc1ccc(/C=C/C2=CC(/C=C/c3ccc(OC)c(OC)c3)=[O+][B-](F)(F)O2)cc1OC` [drawing 73] yielded an IC50 (MDA231; [4]) of 2 µM.

With `COc1cc(F)c(/C=C/C2=CC(/C=C/c3cc(OC)c(OC)cc3F)=[O+][B-](F)(F)O2)cc1OC` [drawing 72] the IC50 (MDA231; [4]) was 1.7 µM.

Molecule `Fc1ccc(/C=C/C2=CC(/C=C/c3ccc(F)cc3)=[O+][B-](F)(F)O2)cc1` has an IC50 (MDA231; [4]) of 1 µM.

In the case of `F[B-]1(F)OC(/C=C/c2ccc(C(F)(F)F)cc2)=CC(/C=C/c2ccc(C(F)(F)F)cc2)=[O+]1`, the NCI-60 cell screening ([1]; words in the IC50 MDA231 column of Table 4) is reported as “NCI-60 cell screening modest activity”.

`CC1(C)CCC(CN2CCN(c3ccc(C(=O)NS(=O)(=O)c4ccc(NCC5CCOCC5)c([N+](=O)[O-])c4)c(Oc4cnc5[nH]ccc5c4)c3)CC2)=C(c2ccc(Cl)cc2)C1` [Venetoclax, reference compound] was tested, and the “cell death in healthy donor PBMCs” value (PBMCs; 1.25, 2.5, 5 uM and 10 uM) was ~10% and the “median apoptosis, MM cell lines” value (MM cell lines) was 15%.

Work on `COc1cc(F)c(/C=C/C2=CC(/C=C/c3cc(OC)c(OC)cc3F)=[O+][B-](F)(F)O2)cc1OC` [drawing 86] yielded an IC50 (MOLT-4; [8]) of 0.01 µM.

For “(1E,4E,6E)-5-Hydroxy-1,7-bis(indole-5)hepta-1,4,6-trien-3-one [compound 2 of Example 5]”, the “apoptosis, MM1.S” value (MM1.S; 10 uM) was 15%, the “apoptosis, KMS11” value (KMS-11; 10 uM) was 54% and the “apoptosis, RPMI-8226” value (RPMI-8226) was 65%.

Work on `O=C(/C=C/c1ccc(F)cc1)C(F)(F)C(=O)/C=C/c1ccc(F)cc1` [compound 12] yielded an IC50 (MOLT-4; [6]) of 1.32 µM, an IC50 (LNCap) of 29.2 µM and an IC50 (MDA231; [7]) of 6.7 µM.

Work on `COc1ccc(/C=C/C(=O)C(F)=C(O)/C=C/c2ccc(OC)c(OC)c2)cc1OC` [drawing 69] yielded an IC50 (MDA231; [4]) of 0.023 µM.

With `COc1cc(/C=C/C(=O)C=C(O)/C=C/c2ccc(O)c(OC)c2)ccc1O` [drawing 75] the IC50 (MDA231; [4]) was 11.5 µM.

With `F[B-]1(F)OC(/C=C/c2cccc3[nH]ccc23)=CC(/C=C/c2cccc3[nH]ccc23)=[O+]1` [3-BF2, Indole-4-Curcuminoid-BF2 adduct] the IC50 [2] was 2.1 µM, the “apoptosis, MM1.S” value (MM1.S; 2.5 uM, 24 h) was 47% and the “apoptosis, KMS-11” value (KMS-11; 2.5 uM, 24 h) was 79%. The “apoptosis, RPMI-8226” value (RPMI-8226) was 60% and the “apoptosis, healthy donor PBMCs” value (PBMCs; […] and 2.5 uM, 24 h) was 23-28%.

`O=C(/C=C/c1ccc(SC(F)(F)F)cc1)/C=C(O)\C=C\c1ccc(SC(F)(F)F)cc1` [compound 19 of FIG. 35, (1E,4E,6E)-5-Hydroxy-1,7-bis(4-trifluoromethylthiophenyl)hepta-1,4,6-trien-3-one] was tested, and the “anti-proliferative potency against HCT-116” value ([1]; dose mean graph, FIG. 22) was “high anti-proliferative potency”.

With `O=C(/C=C/c1ccc(F)cc1)C(F)=C(O)/C=C/c1ccc(F)cc1` the IC50 (MDA231; [4]) was 12 µM.

For `COc1ccc(/C=C/C(=O)C=C(O)/C=C/c2ccc(OC)c(OC)c2)cc1OC` [drawing 83], the IC50 (MOLT-4; [8]) was 0.043 µM.

For `COc1cc(/C=C/C(=O)C(F)=C(O)/C=C/c2ccc(O)c(OC)c2)ccc1O`, the IC50 (MDA231; [4]) was 6.2 µM.

For “1,7-bis(2,3,6-trimethoxyphenyl)hepta-1,4,6-triene-3,5-dione”, the “cell line growth relative to non-treated cells” value [3] was ≤ 50%.

For `F[B-]1(F)OC(/C=C/c2csc3ccccc23)=CC(/C=C/c2csc3ccccc23)=[O+]1` [7-BF2, Benzothiophene-3-Curcuminoid-BF2 adduct], the “anti-proliferative activity by the NCI-60 in-vitro assay” value ([1]; 10^−5 molar, Example 5) was “notable anti-proliferative activity”.

Work on `COc1ccc(/C=C/C2=CC(/C=C/c3ccc(OC)c(OC)c3)=[O+][B-](F)(F)O2)cc1OC` [drawing 84] yielded an IC50 (MOLT-4; [8]) of 0.00056 µM.

`O=C(/C=C/c1ccc(F)cc1)C(F)(F)C(=O)/C=C/c1ccc(F)cc1` [drawing 77] showed an IC50 (MDA231; [5]) of 6.7 µM.
